Measured values taken from the NIST ThermoML archive (doi:10.1021/je800158z).

Experiments:
[1] = xn = mol fraction of the nth substance listed; settings: 81.5 kPa, Liquid
[2] = 81.5 kPa, Liquid

CCCO [propan-1-ol] + O
mass density [kg/m3], [1]
Settings	293.15 K	303.15 K	313.15 K	323.15 K
x1 = 0.0401	980.98	976.93	972.23	966.91
x1 = 0.1202	947.94	941.35	934.48	927.31
x1 = 0.2	918.86	911.37	903.85	896.05
x1 = 0.2798	895.6	887.91	879.98	871.78
x1 = 0.3599	877.53	869.57	861.38	852.93
x1 = 0.4399	863	854.86	846.49	837.86
x1 = 0.5197	851.12	842.87	834.37	825.64
x1 = 0.5986	840.82	832.48	823.92	815.16
x1 = 0.6792	831.69	823.34	814.76	805.95
x1 = 0.7485	824.84	816.47	807.91	799.13
x1 = 0.8383	816.74	808.45	799.96	791.25
x1 = 0.9052	811.17	802.94	794.55	785.94
x1 = 1	803.59	795.53	787.38	778.92

O [water] + CCCO
Settings	mass density [kg/m3]
[1], 323.15 K, x2 = 0	988.03

O [water] + CC(C)O
Settings	mass density [kg/m3]
[1], 323.15 K, x2 = 0	988.03

CC(C)O [propan-2-ol]
[2]
Settings	mass density [kg/m3]
293.15 K	785.1
303.15 K	776.63
313.15 K	767.84
323.15 K	758.68
